From patent US11219607B2, “Methods for suppressing cancer-related cachexia” (Ohio State Innovation Foundation, priority 2013, dated 2022)
Entries after “also recorded” stand apart in the source; their conditions may differ.

Columns and labels:
C-26 tumor-bearing mice [1] = conditions: literature reference (33); cited from earlier work
Atrogin-1/MAFbx mRNA = experiment: qPCR of gastrocnemius muscle, C-26 model: Atrogin-1; format: in vivo, CD2F1 mice; conditions: C-26 tumor-bearing mice, 15 days after tumor cell injection, tumor-bearing/vehicle 29.4±3.5-fold, mean±S.D.
Protocol: (§1) Total RNA was isolated from homogenized gastrocnemius muscles (n=3/group) with TRIzol reagent (Life Technologies, Carlsbad, Calif.) and then purified using the RNAeasy Mini Kit (Qiagen, Valencia, Calif.). qRT-PCR was performed as described previously (42) by using the Bio-Rad CFX96 Real-Time PCR Detection System with iQ SYBR Green Supermix (Bio-Rad, Hercules, Calif.). RNA-seq library generation and data analysis were performed at The Ohio State University Comprehensive Cancer Center (OSUCCC) Nucleic Acid Shared Resource.
(§2) AR-42 was able to restore expression of Atrogin-1 (2.7±0.7-fold) and MuRF1 (1.1±0.2-fold) mRNA to basal levels […].

MuRF1 mRNA = experiment: qPCR of gastrocnemius muscle, C-26 model: MuRF1; format: in vivo, CD2F1 mice; conditions: C-26 tumor-bearing mice, 15 days after tumor cell injection, tumor-bearing/vehicle 25.8±3.9-fold, mean±S.D.
Protocol: as §1, §2

C-26 tumor-bearing mice [2] = experiment: Survival and body weight comparison of HDAC inhibitors, C-26 model; format: in vivo, CD2F1 mice; conditions: vorinostat 50 mg/kg p.o. once daily, romidepsin 0.6 mg/kg i.p. twice weekly, from day 6
Protocol: In one aspect, tumors were established by subcutaneous injection of C-26 cells (0.5×10^6 cells in 0.1 ml) into the right flank of male CD2F1 mice (approximately 6 weeks of age; Harlan Laboratories, Indianapolis, Ind.)(11). Tumor-bearing mice, as well as tumor-free mice serving as non-cachectic controls, were randomized into groups that were treated with either AR-42 (50 mg/kg, p.o. by gavage, every other day; Arno Therapeutics, Inc., Flemington, N.J.) or vehicle (0.5% methylcellulose (w/v) and 0.1% Tween-80 (v/v) in sterile water) starting 6 days after cell injection. To investigate the effect of delayed treatment, treatments with drug and/or vehicle were started 6, 10 and 12 days after cancer cell injection.
In another aspect, the effects of AR-42 were compared to other HDAC inhibitors. […]
The effects of AR-42 were compared to other HDAC inhibitors (i.e., vorinostat and romidepsin) in C-26 tumor-bearing mice. Starting on day 6 after tumor cell injection, mice were treated continuously with AR-42 (50 mg/kg every other day, orally), vorinostat [50 mg/kg once daily, orally (13)], romidepsin [0.6 mg/kg twice weekly, i.p. (14)], or vehicle, until weight loss, as determined by daily body weight measurements and subtraction of tumor mass, reached 20% of starting weight. […]

SMILES	reversal of muscle loss in C-26 tumor-bearing mice (C-26 tumor-bearing mice [1])	Atrogin-1 mRNA level relative to tumor-free/vehicle control (Atrogin-1/MAFbx mRNA)	MuRF1 mRNA level relative to tumor-free/vehicle control (MuRF1 mRNA)	protective effect on body weight / attenuation of cachexia-induced weight loss (C-26 tumor-bearing mice [2])
CCCC(CCC)C(=O)O [valproic acid]	could not reverse muscle loss			
C/C=C1\NC(=O)[C@H]2CSSCC/C=C/[C@H](CC(=O)N[C@H](C(C)C)C(=O)N2)OC(=O)[C@H](C(C)C)NC1=O [romidepsin]		19.6±3.1 fold	14.6±3.3 fold	
CC(/C=C/C(=O)NO)=C\[C@@H](C)C(=O)c1ccc(N(C)C)cc1 [trichostatin-A]	could not reverse muscle loss			
O=C(CCCCCCC(=O)Nc1ccccc1)NO [vorinostat]		9.6±1.8 fold	5.5±1.1 fold	limited or no appreciable protective effects; also recorded: ineffective
